The source made the active and inactive calls. The rule behind the calls is not given here.
What was measured:
ECa-109 cell line = experiment: Antiproliferative activity against human Eca-109 cells measured after 72 hrs by MTT assay; assay type: functional, cell-based; details: ECa-109, 72 h
PC-3 = experiment: Antiproliferative activity against human PC-3 cells measured after 72 hrs by MTT assay; assay type: functional, cell-based; details: PC-3, 72 h
MGC-803 = experiment: cells; details: Homo sapiens, MGC-803, 72 h
Description: Antiproliferative activity against human MGC-803 cells measured after 72 hrs by MTT assay

MCF7 = experiment: cells; details: Homo sapiens, MCF7, 72 h
Description: Antiproliferative activity against human MCF7 cells measured after 72 hrs by MTT assay

[1] = Induction of NO release in phosphate buffer containing excess L-cysteine measured up to 14 hrs by Griess assay; assay type: functional

Row | IC50 (PC-3) [µM] | IC50 (MGC-803) [µM] | IC50 (MCF7) [µM] | SMILES | IC50 (ECa-109 cell line) [µM] | Activity [1]
1 | 2.92 | 1.89 | 3.03 | CCCc1cccc(Nc2nc(SCC(=O)N3CCN(CCOc4no[n+]([O-])c4S(=O)(=O)c4ccccc4)CC3)nc(-c3ccccc3)c2C#N)c1 | 8.05 | –
2 | 1.63 | 1.08 | 2.72 | N#Cc1c(Nc2cccc(F)c2)nc(SCC(=O)N2CCN(CCOc3no[n+]([O-])c3S(=O)(=O)c3ccccc3)CC2)nc1-c1ccccc1 | 4.54 | –
3 | 2.37 | 1.36 | 2.14 | Cc1ccc(Nc2nc(SCC(=O)N3CCN(CCOc4no[n+]([O-])c4S(=O)(=O)c4ccccc4)CC3)nc(-c3ccccc3)c2C#N)cc1 | 2.94 | –
4 | 1.85 | 1.88 | 3.35 | N#Cc1c(Nc2ccc(Cl)c(Cl)c2)nc(SCC(=O)N2CCN(CCOc3no[n+]([O-])c3S(=O)(=O)c3ccccc3)CC2)nc1-c1ccccc1 | 3.92 | –
5 | 1.42 | 1.24 | 2.24 | CCN1CCN(c2nc(SCC(=O)N3CCN(CCOc4no[n+]([O-])c4S(=O)(=O)c4ccccc4)CC3)nc(-c3ccccc3)c2C#N)CC1 | 2.27 | –
6 | 1.57 | 1.46 | 2.69 | CN1CCN(c2nc(SCC(=O)N3CCN(CCOc4no[n+]([O-])c4S(=O)(=O)c4ccccc4)CC3)nc(-c3ccccc3)c2C#N)CC1 | 2.34 | –
7 | 1.92 | 2 | 2.96 | N#Cc1c(Nc2ccccc2)nc(SCC(=O)N2CCN(CCOc3no[n+]([O-])c3S(=O)(=O)c3ccccc3)CC2)nc1-c1ccccc1 | 2.27 | –
8 | 2.15 | 2.04 | 2.74 | CCCc1ccccc1Nc1nc(SCC(=O)N2CCN(CCOc3no[n+]([O-])c3S(=O)(=O)c3ccccc3)CC2)nc(-c2ccccc2)c1C#N | 4.61 | –
9 | 2.37 | 2.58 | 4.16 | N#Cc1c(Nc2ccccc2)nc(SCC(=O)NCCOc2no[n+]([O-])c2S(=O)(=O)c2ccccc2)nc1-c1ccccc1 | 6.35 | –
10 | 3.02 | 1.67 | 2.26 | N#Cc1c(Nc2ccccc2C(F)(F)F)nc(SCC(=O)N2CCN(CCOc3no[n+]([O-])c3S(=O)(=O)c3ccccc3)CC2)nc1-c1ccccc1 | 3.85 | –
11 | 1.55 | 1.33 | 3.16 | N#Cc1c(Nc2cccc(Br)c2)nc(SCC(=O)N2CCN(CCOc3no[n+]([O-])c3S(=O)(=O)c3ccccc3)CC2)nc1-c1ccccc1 | 3.45 | –
12 | 2.25 | 1.59 | 2.33 | Cc1ccccc1Nc1nc(SCC(=O)N2CCN(CCOc3no[n+]([O-])c3S(=O)(=O)c3ccccc3)CC2)nc(-c2ccccc2)c1C#N | 2.48 | –
13 | 6.98 | 8.13 | 8.95 | N#Cc1c(-c2ccccc2)nc(SCC(=O)N2CCN(CCOc3no[n+]([O-])c3S(=O)(=O)c3ccccc3)CC2)nc1N1CCOCC1 | 6.92 | Active
14 | 1.43 | 1.19 | 2.51 | N#Cc1c(Nc2cccc(Cl)c2)nc(SCC(=O)N2CCN(CCOc3no[n+]([O-])c3S(=O)(=O)c3ccccc3)CC2)nc1-c1ccccc1 | 2.31 | –
15 | 2.08 | 2.05 | 3.04 | N#Cc1c(Nc2ccc(Cl)cc2)nc(SCC(=O)N2CCN(CCOc3no[n+]([O-])c3S(=O)(=O)c3ccccc3)CC2)nc1-c1ccccc1 | 3.01 | Active
16 | 3.38 | 1.54 | 2.09 | COc1cccc(Nc2nc(SCC(=O)N3CCN(CCOc4no[n+]([O-])c4S(=O)(=O)c4ccccc4)CC3)nc(-c3ccccc3)c2C#N)c1 | 4.6 | –
17 | 13 | > 50 | > 50 | N#Cc1c(Nc2ccccc2)nc(SCC(=O)OCCCCCCOc2no[n+]([O-])c2S(=O)(=O)c2ccccc2)nc1-c1ccccc1 | > 50 | –
18 | 2.28 | 3.8 | 5.94 | N#Cc1c(Nc2ccccc2)nc(SCC(=O)OCCCCCOc2no[n+]([O-])c2S(=O)(=O)c2ccccc2)nc1-c1ccccc1 | > 50 | –
19 | – | 6.74 | – | O=S(=O)(c1ccccc1)c1c(OCCN2CCNCC2)no[n+]1[O-] | – | –
20 | 2.1 | 18.4 | > 50 | N#Cc1c(Nc2ccccc2)nc(SCC(=O)OCCc2ccc(Oc3no[n+]([O-])c3S(=O)(=O)c3ccccc3)cc2)nc1-c1ccccc1 | 23.1 | –
21 | 2.93 | 2.01 | 2.6 | CCc1ccccc1Nc1nc(SCC(=O)N2CCN(CCOc3no[n+]([O-])c3S(=O)(=O)c3ccccc3)CC2)nc(-c2ccccc2)c1C#N | 4.42 | –
22 | 1.97 | 1.07 | 3.36 | N#Cc1c(Nc2ccc(F)c(Cl)c2)nc(SCC(=O)N2CCN(CCOc3no[n+]([O-])c3S(=O)(=O)c3ccccc3)CC2)nc1-c1ccccc1 | 2.81 | –

Row | IC50 (PC-3) [µM] | IC50 (MGC-803) [µM] | IC50 (MCF7) [µM] | SMILES | IC50 (ECa-109 cell line) [µM] | Activity [1]
23 | 2.72 | 1.45 | 3.39 | CCc1ccc(Nc2nc(SCC(=O)N3CCN(CCOc4no[n+]([O-])c4S(=O)(=O)c4ccccc4)CC3)nc(-c3ccccc3)c2C#N)cc1 | 5.97 | –
24 | 1.94 | 1.39 | 2.31 | N#Cc1c(Nc2ccc(Br)cc2)nc(SCC(=O)N2CCN(CCOc3no[n+]([O-])c3S(=O)(=O)c3ccccc3)CC2)nc1-c1ccccc1 | 3.32 | –
25 | 1.7 | 1.46 | 3.3 | COc1ccccc1Nc1nc(SCC(=O)N2CCN(CCOc3no[n+]([O-])c3S(=O)(=O)c3ccccc3)CC2)nc(-c2ccccc2)c1C#N | 4.7 | –
26 | 2.19 | 1.26 | 2.21 | N#Cc1c(Nc2cccc(C(F)(F)F)c2)nc(SCC(=O)N2CCN(CCOc3no[n+]([O-])c3S(=O)(=O)c3ccccc3)CC2)nc1-c1ccccc1 | 2.89 | –
27 | 2.18 | 3.56 | 3.55 | N#Cc1c(Nc2ccccc2)nc(SCC(=O)N2CCC(Oc3no[n+]([O-])c3S(=O)(=O)c3ccccc3)C2)nc1-c1ccccc1 (stereo unspecified) | 4.39 | –
28 | 5.05 | 4.61 | 6.81 | N#Cc1c(-c2ccccc2)nc(SCC(=O)N2CCN(CCOc3no[n+]([O-])c3S(=O)(=O)c3ccccc3)CC2)nc1N1CCSCC1 | 6.68 | –
29 | 1.39 | 1.56 | 2.23 | N#Cc1c(Nc2ccc(F)cc2)nc(SCC(=O)N2CCN(CCOc3no[n+]([O-])c3S(=O)(=O)c3ccccc3)CC2)nc1-c1ccccc1 | 2.48 | –
30 | 2.32 | 7.31 | 7.66 | N#Cc1c(Nc2ccccc2)nc(SCC(=O)OCCCOc2no[n+]([O-])c2S(=O)(=O)c2ccccc2)nc1-c1ccccc1 | 8.58 | –
31 | 2.45 | 7 | 5.08 | N#Cc1c(Nc2ccccc2)nc(SCC(=O)OCCCCOc2no[n+]([O-])c2S(=O)(=O)c2ccccc2)nc1-c1ccccc1 | > 50 | –
32 | 2.06 | 2.67 | 10.4 | N#Cc1c(Nc2ccccc2)nc(SCC(=O)OCC#CCOc2no[n+]([O-])c2S(=O)(=O)c2ccccc2)nc1-c1ccccc1 | 3.27 | –
33 | 1.19 | 1.44 | 2.28 | N#Cc1c(Nc2ccccc2F)nc(SCC(=O)N2CCN(CCOc3no[n+]([O-])c3S(=O)(=O)c3ccccc3)CC2)nc1-c1ccccc1 | 3.56 | –
34 | 2.4 | 1.11 | 2.87 | CCc1cccc(Nc2nc(SCC(=O)N3CCN(CCOc4no[n+]([O-])c4S(=O)(=O)c4ccccc4)CC3)nc(-c3ccccc3)c2C#N)c1 | 4.1 | –
35 | 2.28 | 2.95 | 6.03 | N#Cc1c(Nc2ccccc2)nc(SCC(=O)NCCCOc2no[n+]([O-])c2S(=O)(=O)c2ccccc2)nc1-c1ccccc1 | 5.73 | –
36 | 1.16 | 1.09 | 2.07 | CCCc1ccc(Nc2nc(SCC(=O)N3CCN(CCOc4no[n+]([O-])c4S(=O)(=O)c4ccccc4)CC3)nc(-c3ccccc3)c2C#N)cc1 | 5.42 | –
37 | 2.01 | 2.57 | 6.02 | N#Cc1c(Nc2ccccc2)nc(SCC(=O)N2CCC(Oc3no[n+]([O-])c3S(=O)(=O)c3ccccc3)CC2)nc1-c1ccccc1 | 7.03 | –
38 | 1.88 | 1.41 | 4.22 | C=CC(=O)Nc1cccc(Nc2nc(SCC(=O)N3CCN(CCOc4no[n+]([O-])c4S(=O)(=O)c4ccccc4)CC3)nc(-c3ccccc3)c2C#N)c1 | 3.66 | –
39 | 2.1 | 1.25 | 2.12 | Cc1cccc(Nc2nc(SCC(=O)N3CCN(CCOc4no[n+]([O-])c4S(=O)(=O)c4ccccc4)CC3)nc(-c3ccccc3)c2C#N)c1 | 2.38 | –
40 | 2.05 | 1.46 | 3.61 | CCOc1ccccc1Nc1nc(SCC(=O)N2CCN(CCOc3no[n+]([O-])c3S(=O)(=O)c3ccccc3)CC2)nc(-c2ccccc2)c1C#N | 3.75 | –
41 | 2.3 | 2.21 | 4.02 | N#Cc1c(Nc2ccccc2)nc(SCC(=O)NCCCCCOc2no[n+]([O-])c2S(=O)(=O)c2ccccc2)nc1-c1ccccc1 | 4.61 | –
42 | 3.52 | 1.56 | 2.23 | N#Cc1c(Nc2ccc(C(F)(F)F)cc2)nc(SCC(=O)N2CCN(CCOc3no[n+]([O-])c3S(=O)(=O)c3ccccc3)CC2)nc1-c1ccccc1 | 4.64 | –
43 | 2.84 | 2.95 | 5.43 | CCOc1ccc(Nc2nc(SCC(=O)N3CCN(CCOc4no[n+]([O-])c4S(=O)(=O)c4ccccc4)CC3)nc(-c3ccccc3)c2C#N)cc1 | 3.57 | –

— ChEMBL document CHEMBL5365407, “Design, synthesis and biological evaluation of nitric oxide-releasing 5-cyano-6-phenyl-2, 4-disubstituted pyrimidine derivatives” (Bioorg Med Chem Lett, 2023)
